Results published in patent US6867027B1, “RNA polymerase” (The Institute of Physical and Chemical Research, priority 1997, dated 2005).
“Also recorded” adds a separate entry of the source.

Tests used:
Type in all cases: biochemical
[1] = Inhibition of [α-32P]UTP incorporation by 3′-dATP in the transcription reaction (3′-dNTP incorporation rate); conditions: compared with wild type T7 RNA polymerase
Experimental: Ribonucleotide (NTP) and 3′-deoxynucleotide (3′-dNTP) incorporation rates of the mutant T7 RNA polymerase purified in Example 7 were measured as follows.
pBluescript(KS+) plasmid (Stratagene) linearized by reaction with a restriction endonuclease, PvuII, was used as a template for the transcription reaction, and 250 μM each of ATP, CTP, GTP, and UTP, 2 mM of spermidine-(HCl)3, 5 mM of DTT, 40 mM Tris/HCl pH 8.0, 0.1 μl of [α-^32P] UTP (3000 Ci/mmole), and 25 units of the mutant T7 RNA polymerase F644Y/L665P/F667Y were also used for the reaction. For two kinds of reaction mixture (with or without 3′-dATP, final concentration was 100 μM), the reaction was performed at 37° C. for 60 minutes. The whole reaction mixture was spotted on DE81 paper (Whatman), washed three times with phosphate buffer, and dried. The DE81 paper was placed into a scintillation vial, and radioactivity was measured using a scintillation counter (Beckman) for each reaction. Degree of inhibition of the [α-^32P] UTP incorporation was calculated by comparing the values obtained with and without 3′-dATP based on the measured radioactivity. The relative activity obtained from calculated inhibition degree and defined as a relative value to the inhibition degree of the wild type T7 RNA polymerase normalized to 1.000 was shown in Table 1.
The inhibition degree was calculated by using the wild type T7 RNA polymerase, T7 RNA polymerase F644Y, L665P/F667Y obtained in Example 3, mutant T7 RNA polymerase F644Y/L665P, F782Y, F733Y, F646Y or Y639F constructed and purified in the same manner as in Examples 2 and 3 for the reaction instead of the above F644Y/L665P/F667Y mutant, and relative activities are shown in Table 1.
For example, it is meant that the mutant T7 RNA polymerase F644Y/L665P/F667Y is 5.58 times more likely to incorporate 31-dATP in comparison with the wild type enzyme.

[2] = tested on: DNA containing T7 promoter; assay: In vitro RNA synthesis activity (enzyme dilution method, plasmid containing T7 promoter as template); conditions: compared with wild type T7 RNA polymerase
From the text: The T7 RNA polymerases introduced with mutations were purified, and their abilities of promoter sequence specific RNA synthesis and incorporation of ribonucleoside 5′-triphosphates including ATP, GTP, CTP, UTP and derivatives thereof, as well as 3′-dATP, 3′-dGTP, 3′-dCTP, 3′-dUTP and derivatives thereof were compared with those of wild type T7 RNA polymerase.
All of the mutant T7 RNA polymerases can be purified by principally the same method. The difference of mutation site may cause some difference in the expression level, and behavior in column chromatography. The purification method of mutant T7 RNA polymerase F644Y is exemplified hereinafter. The expression vector pT7RF644Y for F644Y was introduced into E. coli DH5∝, and the cells were cultured in a test tube containing LB culture medium containing antibiotic ampicillin. When the OD (600 nm) of the medium reached 0.4-0.6, isopropyl-β-thiogalactopyranoside (IPTG) was added to the culture to a final concentration of 0.4 mM, and the cultivation was further continued for additional 8 hours. Then, the E. coli cells were collected by centrifugation. Typically, 2 liters of culture medium affords 10 g of E. coli cells in wet weight. If the E. coli cells are not used immediately, they can be stored in a refrigerator at −20° C. Subsequent steps for purification of enzyme should be performed at a temperature lower than room temperature, preferably 0-5° C. unless otherwise indicated. The E. coli cells were washed with 10 times relative to the cell weight of a washing buffer (20 mM Tris-HCl, pH 8.1, 130 mM NaCl, 2 mM EDTANa2 at 25° C.), centrifuged again [5,000×g, 4° C., 10 minutes), suspended in 10 times in volume of a sonication buffer (50 mM Tris-HCl, pH 8.1, 100 mM NaCl, 0.1 mM EDTANa2, 5 mM dithiothreitol (DTT), 0.1 mM benzamidine, 30 μg/ml phenylmethylsulfonyl fluoride (PMSF), 10 μg/ml bacitracin], and sonicated by using Sonifier 450 (Branson) at 80W for more than 15 minutes to destroy the cells and reduce the viscosity of the cells. […]

[3] = tested on: plasmid vector pBluescriptKS(+) having T7 promoter; assay: Sequencing reaction by the dye terminator method, linearized pBluescriptKS(+) template (Example 5); conditions: four dye terminators, 37° C., 1 hour, ABI 377; listed as wild type T7RNA polymerase (WT)
Experimental: Sequencing reaction by the dye terminator method was performed utilizing the purified mutant T7 RNA polymerases F644Y and L665P/F667Y, and the wild type T7 RNA polymerase as follows for comparison.
For the in vitro transcription reaction, the method of Melton, D. A. (1984, Nucleic Acids Res., 12:7035-7056) exemplified in Example 4 was used. More specifically, the reaction was performed in a total reaction volume of 10 μl containing a plasmid vector pBluescriptKS (+) having T7 promoter linearized by the reaction with a restriction endonuclease PvuII or ScaI as a template, 5-carboxyrhodamine 6G-labeled 3′-deoxyadenosine-5′-triphosphate, 5-carboxyrhodamine 110-labeled 3′-deoxyguanosine-5′-triphosphate, 5-carboxy-X-rhodamine-labeled 3′-deoxycytidine-5′-triphosphate, and 5-carboxytetramethylrhodamine-labeled 3′-deoxyuridine-5′triphosphate, which were dye terminators prepared according to the method described in W096/14434 as derivatives of 3′-DNTP, 500 μM of GTP and UTP, 250 μM of ATP and CTP, 8 mM of MgCl2, 2 mM of spermidine-(HCl)3, 5 mM of DTT, 40 mM of Tris/HCl pH 8.0 (BRL, Gibco) and 25 units of wild type T7 RNA polymerase (BRL, Gibco or Nippon Gene) or the mutant T7 RNA polymerase F644Y at 37° C. for 1 hour. Then, to remove the unreacted dye terminators remained in the reaction product, the transcription product was purified by gel filtration using Sephadex G-50 column (Pharmacia Biotec), and the purification product was evaporated to dryness using a centrifugal evaporator.
(§1) The dried reaction product was dissolved in 6 μl of formamide/EDTA/Blue dextran loading buffer according to the instruction manual Ver. 1.0 of ABI PRISM 377 DNA Sequencing System available from Perkin-Elmer Japan, and 2 μl of the solution was analyzed by ABI 377 DNA Sequencer and an analysis program using denatured gel for sequencing analysis which contained 6M urea/4% Long Ranger™ acrylamide solution (FMC).

[4] = tested on: human thyroid-stimulating hormone (hTSH-β) cDNA PCR product; assay: Transcriptional sequencing reaction on PCR product of hTSH-β cDNA (Example 9); conditions: four dye terminators, PCR product template, FIG. 18
Experimental: As the template for PCR, human thyroid-stimulating hormone (hTSH-β) cDNA subcloned into a plasmid derived from BS750 having T7 promoter was used. By using this plasmid […] having hTSH-β with L220 primer (5′-TAACAATTTCACACAGGAAACA-3′ (SEQ ID NO:38)) and 1211 primer (5′-ACGTTGTAAAACGACGGCCAGT-3′ (SEQ ID NO:39)) existing at both sides of the cloning site, PCR reaction was performed in a reaction volume of 20 μl (1 cycle of 94° C. for 2 minutes, 30 cycles of 94° C. for 1 minute, 55° C. for 1 minute, and 72° C. for 1.5 minutes, followed by 72° C. for 5 minutes). The T7 promoter existed in the downstream of 1211 primer of the PCR product obtained from the above PCR reaction.
The transcriptional sequencing reaction was performed by the method of Melton, D. A, [Nucleic Acids Res., 12: 7035-7056 (1984)].
1 μl (about 10 ng) of the above PCR product was used for the sequencing reaction. […]
as §1, with “program (Sequencing Analysis Ver. 3.0)” for “program”, “(FMC) to afford an electropherogram.” for “(FMC).”

Molecule	ability for incorporating 3′-dATP, 3′-dGTP, 3′-dCTP, 3′-dUTP and derivatives thereof [1]	RNA synthesis activity [2]	sequence reading [3]	sequencing analysis [4]
F733Y: T7 RNA polymerase in which F733 was replaced with Y	slightly improved	slightly decreased		
F882Y: T7 RNA polymerase in which F882 was replaced with Y		markedly decreased		
Wild type: wild type T7 RNA polymerase, 883 amino acid residues, purified from E. coli harboring pT7R or commercially available [reference compound]		exhibited sufficient RNA synthesis activity	could not be correctly performed	
F644Y/L665P/F667Y: mutant T7 RNA polymerase introduced with F644Y/L665P/F667Y mutations (protein) MNTINIAKNDFSDIELAAIPFNTLADHYGERLAREQLALEHESYEMGEARFRKMFERQLKAGEVADNAAAKPLITTLLPKMIARINDWFEEVKAKRGKRPTAFQFLQEIKPEAVAYITIKTTLACLTSADNTTVQAVASAIGRAIEDEARFGRIRDLEAKHFKKNVEEQLNKRVGHVYKKAFMQVVEADMLSKGLLGGEAWSSWHKEDSIHVGVRCIEMLIESTGMVSLHRQNAGVVGQDSETIELAPEYAEAIATRAGALAGISPMFQPCVVPPKPWTGITGGGYWANGRRPLALVRTHSKKALMRYEDVYMPEVYKAINIAQNTAWKINKKVLAVANVITKWKHCPVEDIPAIEREELPMKPEDIDMNPEALTAWKRAAAAVYRKDKARKSRRISLEFMLEQANKFANHKAIWFPYNMDWRGRVYAVSMFNPQGNDMTKGLLTLAKGKPIGKEGYYWLKIHGANCAGVDKVPFPERIKFIEENHENIMACAKSPLENTWWAEQDSPFCFLAFCFEYAGVQHHGLSYNCSLPLAFDGSCSGIQHFSAMLRDEVGGRAVNLLPSETVQDIYGIVAKKVNEILQADAINGTDNEVVTVTDENTGEISEKVKLGTKALAGQWLAYGVTRSVTKRSVMTLAYGSKEYGFRQQVLEDTIQPAIDSGKGPMYTQPNQAAGYMAKLIWESVSVTVVAAVEAMNWLKSAAKLLAAEVKDKKTGEILRKRCAVHWVTPDGFPVWQEYKKPIQTRLNLMFLGQFRLQPTINTNKDSEIDAHKQESGIAPNFVHSQDGSHLRKTVVWAHEKYGIESFALIHDSFGTIPADAANLFKAVRETMVDTYESCDVLADFYDQFADQLHESQLDKMPALPAKGNLNLRDILESDFAFA	the least bias for the 3′-dATP incorporation among the mutant enzymes prepared; also recorded: markedly improved			Excellent sequencing analysis was possible
